US20240262835A1, “PRMT5 INHIBITING COMPOUNDS AND USES THEREOF” (ANTENGENE DISCOVERY LIMITED, priority 2023, published 2024)
Where two headings read alike, the source gives them in different places.

How the values were obtained:
PRMT5/MEP50 = PRMT5/MEP50 (Homo sapiens (Human), UniProt O14744); experiment: MTase-Glo methyl transferase assay (PRMT5 inhibition); format: biochemical; conditions: 50 nM PRMT5/MEP50, 25 μM SAM, 5 μM Histone H4 peptide (1-21), read-out: IC50 for PRMT5 inhibiting
Description: The PRMT5 inhibitory activity of test compounds was determined using the MTase-Glo™ assay (Promega), which monitors the product (S-adenosyl homocysteine or SAH) of methyltransferase reactions. The PRMT5 MTase-Glo assays were conducted in a 384-well white ProxiPlate (PerkinElmer, catalog no.: 6008280) in a total volume of 12 μL. The PRMT5 enzymatic reaction (in 4 μL) contained 50 nM PRMT5/MEP50 (Reaction Biology Corp, catalog no.: HMT-22-148), 25 μM S-adenosyl methionine (SAM, Promega), 5 μM Histone H4 peptide (1-21) (BPS Bioscience, catalog no.: 52018-2) and five-fold serially diluted compounds in a reaction buffer of 50 mM Tris (pH 8.0), 50 mM NaCl, 0.01% Tween 20, 0.01% BSA, and 1 mM DTT. The test compounds were pre-incubated with PRMT5/MEP50 and Histone H4 peptide for 20 minutes at room temperature before the addition of SAM to initiate the PRMT5 reaction. The reaction was allowed to proceed for 1 hour at 37° C. and was terminated by 2 μL of 3× MTase-Glo™ Reagent (Promega) and 150 μM EPZ015666 (Selleck, catalog no.: 1616391-65-1). After a 30-minute incubation at room temperature, 6 μL of MTase-Glo™ Detection Solution (Promega) was added and the plate was incubated at room temperature for an additional 30 minutes. The light signal corresponding to the amount of SAH produced by the PRMT5 reaction was subsequently measured using an Envision multimode reader (PerkinElmer). IC50 and Ki values were obtained by analyzing dose-response curves using GraphPad Prism.

[1] = tested on: HCT116 homozygous MTAP knockout cells; experiment: HCT116 cell proliferation assay (CTG), MTAP knockout cells; format: cell-based, human; conditions: Cell Titer-Glo
Description: Control samples were analyzed in parallel.
On Day 0, 150 HCT116 parental or HCT116 homozygous MTAP knockout cells were seeded in 96-well plates in McCoy's 5A medium containing 10% fetal bovine serum and pen/strep. And the cells were incubated overnight at 37° C. and 5% CO2.
On Day 1, cells were treated with 9-point serial dilution of compound, using a top concentration of 50 μM, 1:5 serial dilution steps and, a DMSO-only control. And cells were incubated for 6 days.
On Day 7, cell viability was measured using a CTG assay Kit (Cell Titer-Glo; Promega, catalog no.: G7573) in accordance with the manufacturer's instructions. Assays plates were read on a EnVision™ Multilabel Reader using the Ultra-Sensitive luminescence model. The data were analyzed by GraphPad Prism 5.0 software, and the dose-effect curve was obtained by fitting the data using nonlinear S-curve regression, from which the IC50 value was calculated.

[2] = biological target: hERG potassium ion channel (Homo sapiens (Human), UniProt Q12809); experiment: hERG potassium ion channel inhibition assay (automated patch-clamp, CHO-hERG cells); format: cell-based; conditions: Qpatch, highest test concentration 40.00 μM
Description: Drug-hERG interaction was measured by automated patch-clamp methods, with cisapride as positive control.
1.1 CHO-hERG cells were cultured in 175 cm^2 culture bottle. After the cell density grew to 60-80%, the culture medium was removed, washed with 7 mL of phosphate buffered saline (PBS), and then digested with 3 mL Detachin.
1.2 After the digestion was complete, 7 mL culture solution was added for neutralization, and then centrifuged, the clear solution was sucked, and 5 mL culture solution was added for re-suspension to ensure the cell density was 2˜5×10^6/mL.
The process of single-cell high-impedance sealing and whole-cell pattern formation was all automatically completed by Qpatch instrument. After obtaining whole-cell recording mode, the cell was pinching at −80 millivolts. Before giving a 5-second +40 millivolt depolarization stimulus, a 50-millisecond pre-voltage of −50 millivolts was given first, and then repolarized to −50 millivolts for 5 seconds. Go back to −80 millivolts. This voltage stimulation was applied every 15 seconds, recorded for 2 minutes, then extracellular fluid was given and recorded for 5 minutes, and then the administration process began. The concentration of test compound was given from the lowest test concentration for 2.5 minutes per test concentration. After continuous administration of all concentrations, the positive control 3 μM cisapride was given. At least 2 cells were tested for each concentration (n≥2).
4.1 The compound mother liquor was diluted with DMSO, and 10 μL compound stock solution was added to 20 μL DMSO solution, which was continuously 3-fold diluted to 6 DMSO-concentrations.
4.2 4 μL of test compounds in 6 DMSO-concentrations were added to 396 μL extracellular solution and were 100-fold diluted to 6 intermediate concentrations. Then, 80 μL of test compounds in 6 intermediate concentrations were added to 320 μL extracellular solution and were 5-fold diluted to the final concentration to be tested.
4.3 The highest test concentration was 40.00 μM, and six test concentrations were 40.00, 13.33, 4.44, 1.48, 0.49, 0.16 μM, respectively.
4.5 Entire dilution process for test compound preparation was performed by Bravo instrument.
The experimental data were analyzed by GraphPad Prism 5.0 software.

[3] = microsomes; for CLint (mic) D / T1/2 of LMS, D: dog
[4] = tested on: cryopreserved hepatocytes; experiment: Hepatic metabolic stability (HMS) assay, cynomolgus monkey hepatocytes; conditions: for T1/2 (hepatocytes) C / CLint (liver) C: cynomolgus monkey hepatocytes; for T1/2 (hepatocytes) C: 1 μM test compound (3 μM positive control); for CLint (liver) C: scaled to liver; for CLint (hep) C: cynomolgus monkey, hepatocytes
Description: 1) 10 mM test compounds were provided.
2) 30 mM positive control stock solutions: Dissolved accurate amount of positive control compounds in dimethyl sulfoxide (DMSO).
3) 1000× Stock Solution: Diluted 10 mM test compounds and 30 mM positive control compounds to 1 mM and 3 mM with DMSO in 96-well plates.
4) 100× Dosing Solution: Diluted 1 mM test compounds and 3 mM positive control compounds to 100 μM and 300 μM dosing solutions with ACN.
5) Preparation of 0.5×10^6/mL cells suspension: cryopreserved cells were thawed, isolated and suspended in Incubation Medium, then diluted with pre-warmed Incubation Medium to 0.5×10^6 cells/mL.
6) Add 198 μL of pre-warmed cell suspensions in 96-well plates.
7) Preparation of Quenching Plate: Transfer 125 μL of stop solution in a set of pre-labeled 96-well plates.
8) Spike 2 μL dosing solution to each well of 96-well plates in duplicate.
9) For TO Samples, mix to achieve a homogenous suspension for about 1 min, then immediately transfer 25 μL of each sample into well containing 125 μL of ice-cold stop solution followed by mixing.
10) Incubate all plates at 37° C. in a 95% humidified incubator at 5% CO2 to start the reactions with constant shaking.
11) At 15, 30, 60 and 90 min, mix samples and then transfer 25 μL of each sample at each time point to well containing 125 μL of ice-cold stop solution followed by mixing.
12) Medium Control (MC) sample plates (labeled as TO-MC and T90-MC) are prepared in the same way as cell incubation except that medium was used instead of cell suspension.
13) At each corresponding time point, stop the reactions by removing the plates from incubator and mixing with 125 μL of ice-cold stop solution.
14) Vortex the plates immediately on a plate shaker at 600 rpm for 10 minutes. Then, centrifuge all sample plates at 3220×g for 20 min at 4° C.
15) After centrifugation, 80 μL/well of supernatant in the sample plates are transferred to another set of pre-labeled 96-well plates which containing 240 μL of ultra pure water according to the plate map.
16) Analytical plates are sealed and store at 4° C. until LC-MS/MS analysis.
The remaining percents of test articles after incubation were calculated by the follow equations:
Use the following equation of first order kinetics to calculate T1/2 and CLint:

[5] = tested on: human colon cancer cell line HCT116 (WT); experiment: In vivo efficacy assay, subcutaneous HCT116 WT xenograft; parameters: species or system Balb/C nude female mouse; conditions: 15 mg/kg PO/QD, 21 days, Balb/C nude mice
Description: The antitumor effect or MTAP/MTA selectivity of the compounds provided herein in the subcutaneously transplanted Balb/C nude female mouse model of human colon cancer cell line HCT116 (WT and MTAP KO) was tested.
Cell viability and cell count were determined. Cell count of the suspension was adjusted to 1×10^8 cells/mL and mixed with Matrigel in a 1:1 volume. Each mouse for this study were inoculated subcutaneously in the right front flank region with 5×10^6 tumor cells (0.1 mL) for tumor development.
The randomization started when the mean tumor size reaches approximately 100-150 mm^3. Mice inoculated with HCT116 WT cells were randomized on day 7. Mice inoculated with HCT116 MTAP KO cells were randomized on day 8. All animals were randomly allocated to 5 study groups, each group consisted of 8 animals. Randomization was performed based on randomized block design.
Tumor volume was measured twice per week in two dimensions using a caliper, and the volume was expressed in mm^3 using the formula: “V=(L×W×W)/2”, where V is tumor volume, L is tumor length (the longest tumor dimension) and W is tumor width (the longest tumor dimension perpendicular to L).

Chain of PRMT5/MEP50 (O14744 whole entry): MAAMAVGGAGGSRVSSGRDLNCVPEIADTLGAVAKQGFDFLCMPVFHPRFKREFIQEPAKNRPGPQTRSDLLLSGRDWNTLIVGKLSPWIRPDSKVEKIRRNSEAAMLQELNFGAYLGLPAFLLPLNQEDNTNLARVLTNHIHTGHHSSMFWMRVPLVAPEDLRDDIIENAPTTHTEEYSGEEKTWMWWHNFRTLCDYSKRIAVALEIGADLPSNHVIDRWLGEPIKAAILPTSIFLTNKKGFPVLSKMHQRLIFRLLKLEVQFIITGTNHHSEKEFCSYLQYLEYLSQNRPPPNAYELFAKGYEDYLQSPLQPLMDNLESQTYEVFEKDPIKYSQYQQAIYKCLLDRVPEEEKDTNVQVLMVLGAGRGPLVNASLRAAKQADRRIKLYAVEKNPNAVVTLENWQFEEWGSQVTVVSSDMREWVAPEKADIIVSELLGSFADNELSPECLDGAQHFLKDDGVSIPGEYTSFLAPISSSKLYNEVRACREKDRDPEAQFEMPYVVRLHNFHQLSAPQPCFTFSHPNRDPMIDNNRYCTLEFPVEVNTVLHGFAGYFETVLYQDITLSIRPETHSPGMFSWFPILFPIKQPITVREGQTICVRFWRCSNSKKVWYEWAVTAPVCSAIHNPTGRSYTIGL
Chain of PRMT5/MEP50 (Q9BQA1 whole entry partner): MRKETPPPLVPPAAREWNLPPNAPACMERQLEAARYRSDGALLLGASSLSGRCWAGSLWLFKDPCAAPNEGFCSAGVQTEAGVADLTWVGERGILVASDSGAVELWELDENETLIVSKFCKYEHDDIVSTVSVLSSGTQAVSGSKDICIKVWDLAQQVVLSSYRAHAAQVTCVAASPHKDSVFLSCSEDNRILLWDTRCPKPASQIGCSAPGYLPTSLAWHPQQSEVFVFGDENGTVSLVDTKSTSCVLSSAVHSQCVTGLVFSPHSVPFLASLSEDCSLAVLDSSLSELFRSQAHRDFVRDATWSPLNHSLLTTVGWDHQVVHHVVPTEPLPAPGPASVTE
Chain of hERG potassium ion channel (Q12809 whole entry): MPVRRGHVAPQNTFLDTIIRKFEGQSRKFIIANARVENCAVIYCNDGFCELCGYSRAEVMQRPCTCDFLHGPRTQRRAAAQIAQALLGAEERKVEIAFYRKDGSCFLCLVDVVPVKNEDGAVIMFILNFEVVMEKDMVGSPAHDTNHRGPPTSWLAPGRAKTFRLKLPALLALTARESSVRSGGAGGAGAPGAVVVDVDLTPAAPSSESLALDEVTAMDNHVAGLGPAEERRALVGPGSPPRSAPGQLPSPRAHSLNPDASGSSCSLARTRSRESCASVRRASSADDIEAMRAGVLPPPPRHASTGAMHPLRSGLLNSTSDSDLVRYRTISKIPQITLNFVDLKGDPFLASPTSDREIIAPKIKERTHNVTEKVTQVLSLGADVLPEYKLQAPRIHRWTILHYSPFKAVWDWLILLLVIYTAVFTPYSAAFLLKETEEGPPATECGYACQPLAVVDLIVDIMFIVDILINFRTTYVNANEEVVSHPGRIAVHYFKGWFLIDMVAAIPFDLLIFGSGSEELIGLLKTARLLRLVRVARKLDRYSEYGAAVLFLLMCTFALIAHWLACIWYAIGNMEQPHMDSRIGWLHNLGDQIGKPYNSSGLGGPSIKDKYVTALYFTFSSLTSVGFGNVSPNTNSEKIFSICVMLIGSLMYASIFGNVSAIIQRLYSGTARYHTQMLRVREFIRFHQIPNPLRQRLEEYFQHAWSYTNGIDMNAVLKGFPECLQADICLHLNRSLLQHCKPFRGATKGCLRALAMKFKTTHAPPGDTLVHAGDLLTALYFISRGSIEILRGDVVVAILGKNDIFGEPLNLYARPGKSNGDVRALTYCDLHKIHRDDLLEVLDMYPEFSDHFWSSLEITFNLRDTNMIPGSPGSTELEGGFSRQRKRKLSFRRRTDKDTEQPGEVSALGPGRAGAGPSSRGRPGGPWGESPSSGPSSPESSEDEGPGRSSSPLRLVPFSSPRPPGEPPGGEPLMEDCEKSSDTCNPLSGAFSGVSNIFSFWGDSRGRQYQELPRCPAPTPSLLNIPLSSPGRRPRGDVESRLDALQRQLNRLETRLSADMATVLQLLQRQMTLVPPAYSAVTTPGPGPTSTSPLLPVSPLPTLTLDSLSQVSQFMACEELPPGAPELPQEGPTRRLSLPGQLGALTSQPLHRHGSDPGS

Structure (SMILES)	IC50 (PRMT5/MEP50)	IC50 ([1]; Homo sapiens, HCT-116, 6 days treatment)	IC50 [2]	CLint (mic) D [3]	T1/2 of LMS, D [3]	CLint (liver) D [3]	CLint (liver) R (microsomes)	CLint (mic) R (rat, microsomes)	T1/2 of LMS, R (rat, microsomes)	T1/2 (hepatocytes) C [4]	CLint (liver) C [4]	CLint (hep) C [4]	IC50 ([1]; 6 days treatment)	Tumor growth inhibition (TGI) HCT 116 WT [5]	CLint (mic) R (rat liver microsome)	T1/2 of LMS, R (rat liver microsome 0.5 mg protein/mL, 1 μM, NADPH)	CLint (liver) R (rat liver microsome, scaled to liver)
CN(C(=O)c1ccc2nc(N)c3cncn3c2c1)[C@@H]1COc2cc(C(F)(F)F)ccc21 [Compound 12]	26 nM	43 nM	5380 nM	–	–	–	–	–	–	–	–	–	–	–	–	–	–
CN(C(=O)c1cc2c(cn1)nc(N)c1cncn12)C1COc2cc(C(F)(F)F)ccc21 (centres unmarked) [Compound 19]	25 nM	–	13500 nM	<9.6 µL/min/mg	>2.42 h	<13.8 mL/min/kg	<17.3 mL/min/kg	<9.6 µL/min/mg	>2.42 h	3.552 h	23.4 mL/min/kg	6.5 μL/min/10^6	39 nM	74%	–	–	–
CN(C(=O)c1ccc2nc(N)c3cncn3c2c1)C1COc2cc(C(F)(F)F)ccc21 (centres unmarked) [Compound 17]	12 nM	–	12800 nM	–	>2.42 h	–	–	–	>2.42 h	–	–	–	32 nM	66%	–	–	–
CN(C(=O)c1cc2c(cn1)nc(N)c1cncn12)C1CC(F)(F)c2cc(C(F)(F)F)ccc21 (centres unmarked) [Compound 24]	14 nM	–	24800 nM	–	–	–	–	–	–	2.193 h	37.9 mL/min/kg	10.5 μL/min/10^6	52 nM	62%	<9.6 µL/min/mg	>2.42 h	<17.3 mL/min/kg
CN(C(=O)c1cc2c(cn1)nc(N)c1cncn12)C1COc2cc(C(F)(F)F)ccc21 (centres unmarked) [Compound 21]	25 nM	–	13600 nM	<9.6 µL/min/mg	>2.42 h	<13.8 mL/min/kg	<17.3 mL/min/kg	<9.6 µL/min/mg	>2.42 h	>3.613 h	<23 mL/min/kg	<6.4 μL/min/10^6	–	59%	–	–	–
